From patent US20150148415A1, “DERIVATIZED DENDRIMER WITH LOW CITOTOXICITY FOR IN VIVO, EX VIVO, IN VITRO OR IN SITU CHELATION OF HEAVY METALS OR ACTINIDES” (priority 2013, published 2015)

System: C57BL/6 mice
Experiment: In vivo acute toxicity assay, substance given alone (serum biochemistry, kidney histology)
Protocol: Animals. A total of 48 male C57BL/6 mice weighing 25-30 g purchased from the Instituto de Salud Pública (ISP), were used. Animal housing and experiment protocols were approved by the University of Talca in adherence to Conicyt experimental animal administrative regulations. All groups were maintained at a constant temperature (22±1° C.) on a 12-h light/12-h dark cycle (lights-on at 08:00 a.m.) and had free access to food and water.
Animal experimental design. […] Animals were euthanized 48 h later and blood samples were collected from the heart for the assessment of serum urea, creatinine, Lactate Deshidrogenase (LDH), Uric Acid and Calcium
Examination of nephrotoxicity. Mice were anaesthetized with sodium pentobarbitone and blood samples were collected from the heart and the kidneys were removed. Serum levels of urea, creatinine, LDH, Uric Acid and Calcium were determined using commercially available kits according to the protocols provided by Valtek (Valtek Diagnostic, Nuñoa, Chile). Left kidneys were fixed in 10% neutral buffered formaldehyde, embedded in paraffin wax and automatically processed. Sections (3 μm in thickness) of the embedded tissue were stained with hematoxylin-eosin for observation under light microscope.
Statistical analysis. The in vitro data were obtained from at least three independent experiments with three replicates, and all data are expressed as mean±SD. Experimental groups were compared using a one-way analysis of variance (ANOVA) followed by Scheffé's test when the data were normally distributed and by the Kruskal-Wallis test when they were not normally distributed. p-Values <0.05 were considered significant. Statistical tests were performed using GraphPad Prism 5 software, version 5.0 for Mac OS X.

[1] = substance alone ip (UO2 5 mg/kg of uranium; G4-Lys-Fmoc-Cbz 16 mg/kg; G5-Cou 40 mg/kg; EDTA 75 mg/kg), serum 48 h

Molecule `CC(=O)O.CC(=O)O.O.O.[O]=[U]=[O]` [UO2^−, UO2(CH3COO)2.2H2O] has a concentration of creatinine (UO2 alone, 5 mg/kg of uranium ip, serum 48 h) of 1.7±0.5, a Calcium [1] of 8.8 ± 0.57 mg/dL and a Urea [1] of 226.3 ± 39.4 mg/dL. The “Uric Acid” value [1] was 2.5 ± 0.39 mg/dL, the “kidney histology (hematoxylin-eosin)” value (substance alone ip, 48 h) was “irreversible damage with necrosis” and the “LDH (wide spectre toxicity indicator)” value (substance alone ip, serum 48 h) was “induced a significant increase of the enzyme”.
